Publication PMC8123576 (International Journal of Molecular Sciences, 2021)
Like-named read-outs stand apart in the source and are kept apart here.

Assays:
Hs27 cells = assay: Cytotoxicity assay (CellTiter 96 AQueous One) on Hs27; assay type: cell-based, human; conditions: for viability: Hs27, 24 h, dose 0 = 100.00, read-out: Growth inhibition data; for GI50: Hs27 cells, 24 h treatment
Protocol: The best antifungal and/or antiaflatoxigenic compounds were tested to determine their cytotoxic activity against human normal cell lines deriving from lung (HFL1, ATCC and CCL-153), skin (Hs27, ATCC, CRL1634) and colon (Crl1790, ATCC, CCD 841 CoN) and a cell line deriving from a hematological tumor (U937, ATCC and CRL-3253). These different cell lines have been chosen to simulate the different human exposition routes to pesticide. Cell culture conditions have been previously reported. Compound cytotoxicity was determined using CellTiter 96® AQueous One Solution Cell Proliferation Assay (Promega Corporation, Madison, WI, USA). The very detailed protocol was described by Bartoli et al.. In brief, cells were seeded in a 96-well plate at a density of 5000 cells/well and after 24 h cells were treated with different concentrations of the compounds (0.5–1–5–10–50–100 µM). After the treatment period (24 h), the CellTiter Reagent was added to each well (20 µL/well) and the plate incubated for 4 h at 37 °C. The plate was then read at 485 nm in a multiwell plate reader (TECAN SpectraFluor Plus, Männedorf, Switzerland).

[1] = system: aflatoxin accumulation by A. flavus; assay: microbe, parasite or virus in culture; assay type: cell-based, Aspergillus flavus
A. cepa root cells = conditions: for DNA damage as chromosomal aberrations in Allium root cells: 10.0 µM
Protocol: To detect micronuclei and chromosomal aberrations six equal-sized pre-germinated young bulbs per sample were exposed for 24 h to sample dilutions. The bulbs dedicated to the micronuclei test underwent an additional treatment in the saline solution for 44 h of recovery time to cover two rounds of mitosis so that damage induced in chromosomes during mitosis to be visible as micronuclei in interphase cells. Then all the roots were fixed in acetic acid and ethanol (1:3) for 24 h and lastly stored in 70% ethanol. The negative control was DMSO in Rank’s solution (the dose of DMSO corresponding to volume of samples) and positive control was maleic hydrazide (10^−2 M, 6 h exposure). […] All experiments were performed in duplicate.

A. flavus = assay: microbe, parasite or virus in culture; assay type: cell-based, Aspergillus flavus; conditions: for inhibition at 100 µM: Aspergillus flavus, read-out: G.I. (%) (A. flavus growth inhibition)
A. cepa = A. cepa toxicity test (root length); assay type: in vivo, Allium cepa; conditions: in vivo
Protocol: A. cepa toxicity test: Twelve equal-sized young onion bulbs were exposed for 96 h in the dark to different concentrations of compounds dissolved in DMSO, changing the sample solution every day. […] Root macroscopic parameters such as turgescence, consistency, change in color and root tip shape, were used as toxicity indexes.

[2] = system: S. typhimurium TA98 and TA100 strains; assay: Ames test, overall mutagenicity verdict in bacteria; conditions: TA98 and TA100, -S9 and +S9
[3] = Aspergillus flavus, read-out: A.I. (%) (aflatoxin accumulation inhibition)

| Compound | A.I. (%) (aflatoxin accumulation inhibition) ([1]; 50 µM) | A.I. (%) (aflatoxin accumulation inhibition) ([1]; 100 µM) | G.I. (%) (A. flavus growth inhibition) (A. flavus; 100 µM) | further results |
| --- | --- | --- | --- | --- |
| Bis(2-acetylthiophenethiosemicarbazonato) zinc(II) [2-actpTS-Zn] | 60,4% | 85,4% | – | viability (Hs27 cells; 0.5 µM): 91.6 ± 7.33%; viability (Hs27 cells; 1 µM): 94.3 ± 2.25%; viability (Hs27 cells; 5 µM): 81.9 ± 5.34%; viability (Hs27 cells; 10 µM): 60.1 ± 1.57%; viability (Hs27 cells; 50 µM): 15.5 ± 0.56%; viability (Hs27 cells; 100 µM): 16 ± 1.39%; GI50 (Hs27 cells): 15.4 µM |
| CN(N=CC=Cc1ccccc1)C(N)=S [Cinnamaldehyde 2‐methyl thiosemicarbazone] | – | 64,0% | – | DNA damage as chromosomal aberrations in Allium root cells (A. cepa root cells): induced DNA damage as chromosomal aberrations |
| Bis(2-acetylfuranthiosemicarbazonato) copper(II) [2-acfurTS-Cu] | – | 65,7% | 63,4% | impact on fungal growth (A. flavus; 10 to 100 µM, complexes compared with their ligand): higher fungistatic activity; viability (Hs27 cells; 0.5 µM): 92.8 ± 5.53%; viability (Hs27 cells; 1 µM): 99.4 ± 4.63%; viability (Hs27 cells; 5 µM): 98.9 ± 12.1%; viability (Hs27 cells; 10 µM): 100 ± 5.93%; viability (Hs27 cells; 50 µM): 36.9 ± 6.49%; viability (Hs27 cells; 100 µM): 35.6 ± 1.89%; GI50 (Hs27 cells): 39 µM |
| CCCCC(=NNC(N)=S)c1ccccc1 [Valerophenone thiosemicarbazone] | – | 55,0% | 54,0% | DNA damage as chromosomal aberrations in Allium root cells (A. cepa root cells): induced DNA damage as chromosomal aberrations |
| O=C(O)c1ccc2c(c1)C(=O)c1ccccc1C2=O [Anthraquinone‐2‐carboxylic acid] | 56,0% | 80,0% | – | DNA damage as chromosomal aberrations in Allium root cells (A. cepa root cells): induced DNA damage as chromosomal aberrations; effect on A. cepa root length (A. cepa): reduction of A. cepa root length |
| CCCCCCCCCC=NNC(N)=S [Decanal thiosemicarbazone] | – | 62,0% | 96,0% | G.I. (%) (A. flavus growth inhibition) (A. flavus; 50 µM): 96,0% |
| C=C(C)C1CC=C(C=NNC(N)=S)CC1 (stereo not shown) [Perillaldehyde thiosemicarbazone] | 78,0% | 87,3% | 73,5% | – |
| Ni(II) Cinnamaldehyde bisthiosemicarbazonate | 95,0% | 100% | 100% | G.I. (%) (A. flavus growth inhibition) (A. flavus; 50 µM): 87,9% |
| Cu(II) jasmone bisthiosemicarbazonate | 78,0% | 97,0% | 74,3% | – |
| Bis(2-acetylfuranthiosemicarbazonato) zinc(II) [2-acfurTS-Zn] | – | – | – | impact on fungal growth compared with the ligand (A. flavus; 100 µM): slightly less effective; viability (Hs27 cells; 0.5 µM): 100 ± 7.72%; viability (Hs27 cells; 1 µM): 100 ± 7.88%; viability (Hs27 cells; 5 µM): 100 ± 7.7%; viability (Hs27 cells; 10 µM): 100 ± 12.7%; viability (Hs27 cells; 50 µM): 16.5 ± 0.62%; viability (Hs27 cells; 100 µM): 15.2 ± 0.73%; GI50 (Hs27 cells): 30.5 µM |
| Bisvanillin thiosemicarbazone | – | 61,0% | 57,0% | – |
| Ni(II) citronellal bisthiosemicarbazonate | – | 82,1% | 58,9% | – |
| NC(=S)N/N=C\C=C\c1ccccc1 [Cinnamaldehyde thiosemicarbazone] | – | – | – | inhibition at 100 µM (A. flavus; 100 µM): 56%; inhibition at 50 µM [1, 3]: 73.1%; inhibition at 100 µM [1, 3]: 79% |
| CC(C)c1cccc(C=NN(C)C(N)=S)c1 [3‐isopropyl benzaldehyde‐2‐methyl‐thiosemicarbazone] | – | 62,7% | 70,6% | – |
| CN(C)C(=S)NN=Cc1ccccc1 [benzaldehyde 4,4'‐dimethyl thiosemicarbazone] | 76,0% | 90,0% | – | mutagenicity in bacteria [2]: without showing any mutagenic effect; mitotic index / interference with cell division (A. cepa root cells; respect to the control): lower mitotic index |
| Cu(II)undecanal bisthiosemicarbazonate | 84,8% | 96,0% | 94,0% | G.I. (%) (A. flavus growth inhibition) (A. flavus; 50 µM): 60,4% |

| Compound | A.I. (%) (aflatoxin accumulation inhibition) ([1]; 50 µM) | A.I. (%) (aflatoxin accumulation inhibition) ([1]; 100 µM) | G.I. (%) (A. flavus growth inhibition) (A. flavus; 100 µM) | further results |
| --- | --- | --- | --- | --- |
| Plumbagin thiosemicarbazone | – | 83,0% | 61,9% | – |
| O=Cc1ccc2c(c1)C(=O)c1ccccc1C2=O [2‐Formylanthraquinone] | – | – | – | inhibition at 100 µM (A. flavus; 100 µM): 58%; DNA damage as chromosomal aberrations in Allium root cells (A. cepa root cells): induced DNA damage as chromosomal aberrations |
| NC(=S)NNC(=O)c1ccc2c(c1)C(=O)c1ccccc1C2=O [Anthraquinone‐2‐carbonyl‐1‐thiosemicarbazide] | – | – | 58,0% | mutagenicity in bacteria [2]: slight mutagenic activity |
| Mn(II) 2‐acetylthiophene bisthiosemicarbazonate | 61,0% | 92,0% | 53,0% | – |
| Bis(2-acetylthiophenethiosemicarbazonato) copper(II) [2-actpTS-Cu] | 56,5% | 88,6% | – | viability (Hs27 cells; 0.5 µM): 90.7 ± 4.69%; viability (Hs27 cells; 1 µM): 87.1 ± 3.53%; viability (Hs27 cells; 5 µM): 72.1 ± 3.35%; viability (Hs27 cells; 10 µM): 16.2 ± 0.84%; viability (Hs27 cells; 50 µM): 14.6 ± 0.85%; viability (Hs27 cells; 100 µM): 15 ± 0.2%; GI50 (Hs27 cells): 6.2 µM |
| Cu(II) 2‐isopropyl benzaldehyde‐2‐methyl‐thiosemicarbazone di acetate | 71,4% | 86,7% | 95% | G.I. (%) (A. flavus growth inhibition) (A. flavus; 50 µM): 90,0% |
| Cu(II) nonanal bisthiosemicarbazonate | 90,0% | 100% | 84,1% | – |
| Cu(II) 3,4,5‐trimethoxybenzaldehyde bisthiosemicarbazonate | – | 76,0% | 54,0% | – |
| Cu(II) syringaldehyde bisthiosemicarbazonate | – | 61,0% | 61,0% | – |
| Cu(II) apocynin bisthiosemicarbazonate | 52,0% | 72,0% | 72,0% | G.I. (%) (A. flavus growth inhibition) (A. flavus; 50 µM): 61,0% |
| CN(C)C(=S)NN=CC=Cc1ccccc1 [Cinnamaldehyde 4,4‐dimethyl thiosemicarbazone] | 100% | 100% | – | mutagenicity in bacteria [2]: slight mutagenic activity; effect on A. cepa root length (A. cepa): reduction of A. cepa root length |
| Ni(II) Cuminaldehyde bisthiosemicarbazonate | 91,5% | 96,0% | 90,0% | G.I. (%) (A. flavus growth inhibition) (A. flavus; 50 µM): 84,0% |
| Cu(II) Quinolinecarboxaldehyde bisthiosemicarbazonate | 55,7% | 88,0 | 60,7% | – |
| Zn(II) Cinnamaldehyde bisthiosemicarbazonate | 99,0% | 100% | 76,0% | G.I. (%) (A. flavus growth inhibition) (A. flavus; 50 µM): 56,0% |
| Cu(II) fenchone bisthiosemicarbazonate | 62,0% | 84,0% | 57,0% | – |
| CCCCCCCC=NNC(N)=S [Octanal thiosemicarbazone] | 76,0% | 96,0% | 93,0% | G.I. (%) (A. flavus growth inhibition) (A. flavus; 50 µM): 82,0% |
